Measurements published in US8143243B2, “Compounds for the treatment of hepatitis C” (Bristol-Myers Squibb Company, priority 2007, dated 2012).

Legend:
HCV NS5B = molecular target: T1, HCV NS5B (Hepatitis C virus genotype 1b, UniProt Q9WMX2); experiment: HCV NS5B RdRp enzyme assay (standard / modified); type: biochemical; conditions: HCV RdRp genotype 1b enzyme; read-out: IC50
T1 construct: The protein was expressed with an 18 amino acid C-terminal truncation to enhance the solubility; made in house; host or cells: E. coli BL21 (DE3)
T1 sequence (Q9WMX2 2420-2992): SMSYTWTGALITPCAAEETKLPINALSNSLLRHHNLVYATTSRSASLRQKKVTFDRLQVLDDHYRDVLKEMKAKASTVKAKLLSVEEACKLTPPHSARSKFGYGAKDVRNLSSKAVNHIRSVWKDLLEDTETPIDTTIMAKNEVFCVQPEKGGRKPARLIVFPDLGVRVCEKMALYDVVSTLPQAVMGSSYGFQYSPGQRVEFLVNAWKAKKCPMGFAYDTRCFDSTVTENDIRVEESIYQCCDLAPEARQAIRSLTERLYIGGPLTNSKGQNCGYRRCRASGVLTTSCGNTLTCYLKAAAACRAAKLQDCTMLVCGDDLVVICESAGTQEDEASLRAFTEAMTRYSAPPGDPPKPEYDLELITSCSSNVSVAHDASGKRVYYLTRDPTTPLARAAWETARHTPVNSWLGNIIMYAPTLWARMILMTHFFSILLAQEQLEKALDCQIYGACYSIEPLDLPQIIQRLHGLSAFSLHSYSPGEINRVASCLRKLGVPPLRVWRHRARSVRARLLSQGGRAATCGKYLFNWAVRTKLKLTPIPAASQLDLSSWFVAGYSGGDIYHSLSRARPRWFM
How it was run: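 NS5B genotype 1b, 18-aa C-terminal truncation, E. coli-expressed; polyA template with biotinylated oligo-dT12 primer, 3H-UTP 0.29 μM, 30° C, SPA read-out in 20 mM Hepes pH 7.5, 2% DMSO. Standard: 28 nM enzyme, 6 nM template, 180 nM primer, 60 min; modified: 14 nM enzyme, 0.2 nM template, 20 nM bead-precaptured primer, 4 h. IC50 from seven concentrations.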

HCV replicon cells = experiment: HCV replicon FRET / luciferase assay; type: cell-based; conditions: Hepatitis C virus; HCV replicon cells, FRET or luciferase readout; read-out: EC50
How it was run: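 Replicon cells + titrated cpds, 37 °C CO2. Alamar blue for cytotoxicity, PBS rinse, then lysis reagent w/ 20 μM FRET peptide (EDANS/DABCYL), 150 mM NaCl; kinetic read ex340/em490, 20 cycles. Alt: Dual-Glo luciferase. EC50 = 50% drop in FRET/luciferase signal after background subtraction.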

Structure (SMILES)	IC50 (HCV NS5B)	EC50 (HCV replicon cells)
COC(=O)c1ncoc1C1=Cc2cc(OC)ccc2-c2c(C3CCCCC3)c3ccc(C(=O)OC(C)(C)C)cc3n2C1	> 40 nM	> 40 nM
COc1ccc2c(c1)C=C(c1ocnc1C(=O)O)Cn1c-2c(C2CCCCC2)c2ccc(C(=O)OC(C)(C)C)cc21	> 40 nM	> 40 nM
COc1ccc2c(c1)C=C(c1c(C(=O)O)cnn1C)Cn1c-2c(C2CCCCC2)c2ccc(C(=O)O)cc21	1 to 500 nM	> 40 nM
COc1ccc2c(c1)C=C(c1ocnc1C(=O)N1CCOCC1)Cn1c-2c(C2CCCCC2)c2ccc(C(=O)OC(C)(C)C)cc21	> 40 nM	> 40 nM
COc1ccc2c(c1)C=C(c1ocnc1C(=O)N1CCOCC1)Cn1c-2c(C2CCCCC2)c2ccc(C(=O)O)cc21	1 to 500 nM	1 to 500 nM
COc1ccc2c(c1)C=C(c1ocnc1C(=O)N1CCOCC1)Cn1c-2c(C2CCCCC2)c2ccc(C(=O)NS(=O)(=O)N(C)C)cc21	1 to 500 nM	1 to 500 nM
COc1ccc2c(c1)C=C(c1c(C(=O)N3CCOCC3)cnn1C)Cn1c-2c(C2CCCCC2)c2ccc(C(=O)NS(=O)(=O)CC(C)C)cc21	1 to 500 nM	1 to 500 nM
COc1ccc2c(c1)C=C(c1c(C(=O)N3C[C@@H](C)O[C@@H](C)C3)cnn1C)Cn1c-2c(C2CCCCC2)c2ccc(C(=O)NS(=O)(=O)CC(C)C)cc21	1 to 500 nM	1 to 500 nM
COC[C@@H]1CN(C(=O)c2cnn(C)c2C2=Cc3cc(OC)ccc3-c3c(C4CCCCC4)c4ccc(C(=O)NS(=O)(=O)CC(C)C)cc4n3C2)CCO1	1 to 500 nM	1 to 500 nM
COC[C@@H]1CN(C(=O)c2cnn(C)c2C2=Cc3cc(OC)ccc3-c3c(C4CCCCC4)c4ccc(C(=O)NS(=O)(=O)C5CCC5)cc4n3C2)CCO1	1 to 500 nM	1 to 500 nM
CCN1C[C@@H]2C[C@H]1CN2C(=O)c1cnn(C)c1C1=Cc2cc(OC)ccc2-c2c(C3CCCCC3)c3ccc(C(=O)NS(=O)(=O)C4CCC4)cc3n2C1	1 to 500 nM	1 to 500 nM
COc1ccc2c(c1)C=C(c1c(C(=O)N3CCCC(N(C)C)C3)cnn1C)Cn1c-2c(C2CCCCC2)c2ccc(C(=O)NS(=O)(=O)C3CCC3)cc21 (stereo not drawn)	1 to 500 nM	1 to 500 nM
COc1ccc2c(c1)C=C(c1c(C(=O)N3CCOCC3)cnn1C)Cn1c-2c(C2CCCCC2)c2ccc(C(=O)NS(=O)(=O)C3CCC3)cc21	1 to 500 nM	1 to 500 nM
COc1ccc2c(c1)C=C(c1c(C(=O)N3CCN4CCCC4C3)cnn1C)Cn1c-2c(C2CCCCC2)c2ccc(C(=O)NS(=O)(=O)C3CCC3)cc21 (stereo not drawn)	1 to 500 nM	1 to 500 nM
COc1ccc2c(c1)C=C(c1sccc1C(=O)O)Cn1c-2c(C2CCCCC2)c2ccc(C(=O)NS(=O)(=O)C(C)C)cc21	1 to 500 nM	> 40 nM
COc1ccc2c(c1)C=C(c1c(C(=O)N(CC3CCCO3)C(C)C)cnn1C)Cn1c-2c(C2CCCCC2)c2ccc(C(=O)NS(=O)(=O)C(C)C)cc21 (stereo not drawn)	1 to 500 nM	1 to 500 nM
COc1ccc2c(c1)C=C(c1c(C(=O)N3CCOCC3)cnn1C(C)C)Cn1c-2c(C2CCCCC2)c2ccc(C(=O)NS(=O)(=O)C(C)C)cc21	1 to 500 nM	1 to 500 nM
COc1ccc2c(c1)C=C(c1c(C(=O)N3CC(C)OC(C)C3)cnn1C(C)C)Cn1c-2c(C2CCCCC2)c2ccc(C(=O)NS(=O)(=O)C(C)C)cc21 (stereo not drawn)	1 to 500 nM	1 to 500 nM
CCN1C[C@@H]2CC1CN2C(=O)c1cnn(C(C)C)c1C1=Cc2cc(OC)ccc2-c2c(C3CCCCC3)c3ccc(C(=O)NS(=O)(=O)C(C)C)cc3n2C1	1 to 500 nM	1 to 500 nM
COc1ccc2c(c1)C=C(c1c(C(=O)N3C4CC3CN(C)C4)cnn1C(C)C)Cn1c-2c(C2CCCCC2)c2ccc(C(=O)NS(=O)(=O)C(C)C)cc21	1 to 500 nM	1 to 500 nM
COc1ccc2c(c1)C=C(c1c(C(=O)N3CC(C)N(C)C(C)C3)cnn1C(C)C)Cn1c-2c(C2CCCCC2)c2ccc(C(=O)NS(=O)(=O)C(C)C)cc21 (stereo not drawn)	1 to 500 nM	1 to 500 nM
CCN1C[C@H]2C[C@@H]1CN2C(=O)c1cnn(C(C)C)c1C1=Cc2cc(OC)ccc2-c2c(C3CCCCC3)c3ccc(C(=O)NS(=O)(=O)CC(C)C)cc3n2C1	1 to 500 nM	1 to 500 nM
COc1ccc2c(c1)C=C(c1c(C(=O)N3C[C@@H](C)O[C@@H](C)C3)cnn1C(C)C)Cn1c-2c(C2CCCCC2)c2ccc(C(=O)NS(=O)(=O)CC(C)C)cc21	1 to 500 nM	1 to 500 nM
COc1ccc2c(c1)C=C(c1c(C(=O)N3CCOCC3)cnn1C(C)C)Cn1c-2c(C2CCCCC2)c2ccc(C(=O)NS(=O)(=O)CC(C)C)cc21	1 to 500 nM	1 to 500 nM
